The nature of data set [1]: Metabolic stabilities in hepatic microsomes. To be noted: pH 7.4; hepatic microsomes 0.5 mg/ml, compound 1 μM; read-out: Half-life time. The format is in vitro ADME. How it is done:
Hepatic microsomes (Becton Dickinson) were incubated at a protein concentration of 0.5 mg/ml in the reaction medium.
The reaction medium of the microsomes was composed of phosphate buffer, pH: 7.4 at 100 mM, of MgCl2 at 100 mM (50/50), of an […] composed of a mixture of […] (NADP) and of glucose-6-phosphate (G6P) at 1 mg/ml and of glucose-6-phosphate dehydroganase (G6PDH) at 4 U/ml. The compounds were tested at 1 μM (0.1% DMSO).
The samples of incubation medium after addition of the microsomes were taken at times 5, 10, 15, 30 and 60 minutes. At each time, the metabolic reaction was stopped by adding methanol (1 volume incubation medium/3 volumes of methanol). The disappearance of the parent product was measured by LC/MS/MS analysis. The time for which 50% of parent Product disappeared (T½) was calculated from the kinetics of disappearance of the parent product as a function of time.

The target of data set [2] is CXCR2 receptor (Homo sapiens (Human), UniProt P25025). Kind of data set: β-arrestin 2 recruitment test, PathHunter HEK293-CXCR2 cells stimulated with CXCL8. The format is cell-based. Particulars: CXCL8 stimulation. How it is done:
(§1) The in vitro affinity of the compounds of the present invention for the CXCR1 and CXCR2 receptors was determined on a functional test of the β-arrestin recruitment type after receptor activation.
(§2) β-Arrestin Recruitment Assay:
(§3) “PathHunter HEK293-CXCR2” or “U2OS hCXCR1 β-arrestin” cells (DiscoveRx Corporation) were seeded overnight at 10 000 cells/well (384-well format) in 20 μl of Opti MEM I medium. A preincubation with the antagonist or the vehicle for 30 min at 37° C. and 5% CO2 was followed by 60 minutes of stimulation with CXCL8 at 37° C. and 5% CO2. The cells were then placed at ambient temperature for 30 minutes. The PathHunter detection reagent (DiscoveRx Corporation) was added. […] The data were analyzed by means of a non-linear curve procedure using the XLFit4 exploitation software (IDBS) and the IC50 values were determined.

The target of data set [3] is CXCR1 receptor (Homo sapiens (Human), UniProt P25024). Kind of data set: β-arrestin 2 recruitment test, U2OS hCXCR1 β-arrestin cells stimulated with CXCL8. Particulars: CXCL8 stimulation. The format is cell-based. How it is done:
as §1, §2, §3

In data set [4] the test system is receptors of CXCR1 and CXCR2 type. Particulars: pseudo-irreversible dissociation, JPET 322:477-485, 2007; cited from earlier work.
Data set [5] is described as follows: Metabolic stabilities in hepatocytes. Particulars: human hepatocytes, compound 1 μM; read-out: Half-life time. The format is in vitro ADME. How it is done: The human hepatocytes were supplied by Biopredic in 24-well plates.
At each time, the metabolic reaction was stopped by adding methanol (1 volume incubation medium/3 volumes of methanol). The disappearance of the parent product was measured by LC/MS/MS analysis. The time for which 50% (T½) of parent product disappeared was calculated from the kinetics of disappearance of the parent product as a function of time.

Data set [6] deals with CXCR3 (Homo sapiens (Human), UniProt P49682). Kind of data set: Receptor profiling: calcium flux (FLIPR TETRA) on Chem-1 cells expressing chemokine receptor. The format is cell-based. To be noted: antagonist activity, reference agonist at AC80. As for the experimental part:
(§4) Measurement of Calcium Flux on Cells:
(§5) The experiments were carried out on the FLIPR TETRA® platform from Molecular Devices. After the basal level had been read, the compounds were added to the cells expressing the chemokine receptor of interest and the agonist activity was read at 10 seconds.
(§6) Each cell line expressing a chemokine receptor was established on the basis of the Chem-1 cell stably expressing the recombinant form of the chemokine receptor and also an associated G protein, with the aim of coupling the receptor to the calcium signalling pathway. 21 receptors belonging to the chemokine receptor family (CCRs and CXCRs) were analyzed. All the CXCR2 antagonists were tested in a dose-dependent manner and the concentration corresponding to 50% inhibition of the response was determined (IC50).

The target of data set [7] is CCR4 (Homo sapiens (Human), UniProt P51679). The description is as above. It counts as cell-based. Particulars: antagonist activity, reference agonist at AC80. As for the experimental part:
as §4, §5, §6

CXCR2 receptor, sequence (P25025 whole entry): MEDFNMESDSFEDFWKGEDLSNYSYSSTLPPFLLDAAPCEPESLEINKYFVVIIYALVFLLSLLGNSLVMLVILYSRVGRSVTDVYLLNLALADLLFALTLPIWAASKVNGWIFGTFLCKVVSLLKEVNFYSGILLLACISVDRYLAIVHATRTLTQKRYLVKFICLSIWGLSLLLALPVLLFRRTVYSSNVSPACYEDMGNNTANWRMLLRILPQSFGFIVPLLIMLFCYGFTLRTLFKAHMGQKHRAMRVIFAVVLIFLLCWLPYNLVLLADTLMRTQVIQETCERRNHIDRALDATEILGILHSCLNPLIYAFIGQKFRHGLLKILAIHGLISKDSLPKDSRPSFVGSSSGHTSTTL
CXCR1 receptor, sequence (P25024 whole entry): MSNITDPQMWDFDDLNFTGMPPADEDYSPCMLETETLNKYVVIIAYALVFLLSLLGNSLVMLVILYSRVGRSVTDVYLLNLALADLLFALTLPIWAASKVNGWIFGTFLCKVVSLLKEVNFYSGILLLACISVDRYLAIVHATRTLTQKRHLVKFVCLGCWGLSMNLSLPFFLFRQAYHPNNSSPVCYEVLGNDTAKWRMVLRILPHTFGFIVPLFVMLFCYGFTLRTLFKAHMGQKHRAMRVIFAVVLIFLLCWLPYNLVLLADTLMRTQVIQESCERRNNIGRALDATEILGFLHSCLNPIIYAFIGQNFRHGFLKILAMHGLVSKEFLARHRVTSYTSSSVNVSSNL
CCR4, sequence (P51679 whole entry): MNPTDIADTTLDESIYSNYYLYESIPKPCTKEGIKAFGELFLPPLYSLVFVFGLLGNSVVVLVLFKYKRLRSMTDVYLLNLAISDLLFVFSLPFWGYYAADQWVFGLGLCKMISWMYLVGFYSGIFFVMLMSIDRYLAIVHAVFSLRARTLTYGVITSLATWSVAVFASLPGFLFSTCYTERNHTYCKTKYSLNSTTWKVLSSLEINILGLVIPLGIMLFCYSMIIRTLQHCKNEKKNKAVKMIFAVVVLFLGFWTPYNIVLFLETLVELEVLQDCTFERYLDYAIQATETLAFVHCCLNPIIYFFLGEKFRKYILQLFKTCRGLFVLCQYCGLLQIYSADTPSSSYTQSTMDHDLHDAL
CXCR3, sequence (P49682 whole entry): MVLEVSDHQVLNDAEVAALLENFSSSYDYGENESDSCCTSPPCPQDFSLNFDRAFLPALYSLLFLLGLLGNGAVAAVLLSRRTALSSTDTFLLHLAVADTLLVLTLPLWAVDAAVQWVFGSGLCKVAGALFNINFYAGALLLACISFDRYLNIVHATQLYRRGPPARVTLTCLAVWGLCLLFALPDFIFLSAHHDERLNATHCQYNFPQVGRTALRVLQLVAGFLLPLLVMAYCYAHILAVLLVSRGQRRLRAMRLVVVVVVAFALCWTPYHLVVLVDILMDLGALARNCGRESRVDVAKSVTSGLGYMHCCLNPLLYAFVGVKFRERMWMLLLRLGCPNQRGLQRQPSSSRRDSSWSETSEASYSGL

Broadly, the half-life is how long it takes for the measured level to halve. Usually IC50 stands for the point on the concentration scale where inhibition reaches its midpoint. For the compound `Cc1ccc(C(Nc2c(Nc3cccc(S(=O)(=O)N(C)C)c3O)c(=O)c2=O)C2(C)COC2)o1` (stereo not shown) [Example 21, 2-hydroxy-N,N-dimethyl-3-(2-{[(5-methylfuran-2-yl)-(3-methyloxetan-3-yl)methyl]amino}-3,4-dioxocyclobut-1-enylamino)benzenesulfonamide], the half-life at 1 μM in data set [1] is 7.7 min. The IC50 in data set [2] is 257 nM; in data set [3] it was 1440 nM.
Regarding `CC[C@@H](Nc1c(Nc2cccc(C(=O)N(C)C)c2O)c(=O)c1=O)c1ccc(C)o1` [SCH-527123], the dissociation time result in data set [4] is given as “about 22 h”.
As for `Cc1ccc([C@H](Nc2c(Nc3ccc(Cl)c(S(=O)(=O)N4CCN(C)CC4)c3O)c(=O)c2=O)C2(C)COC2)o1` [Example 53, 3-[4-chloro-2-hydroxy-3-(4-methylpiperazine-1-sulfonyl)phenylamino]-4-{[(R)-(5-methylfuran-2-yl)-(3-methyloxetan-3-yl)methyl]amino}cyclobut-3-ene-1,2-dione], the half-life at 1 μM came out at 186 min in data set [5] and 47 min in data set [1]. Further, the IC50 in data set [2] is 30 nM; in data set [6], 920 nM; in data set [7] it was 450 nM; in data set [3], 115 nM.

These data come from patent publication US9090596B2, “Disubstituted 3,4-diamino-3-cyclobutene-1,2-dione compounds for use in the treatment of chemokine-mediated pathologies” (GALDERMA RESEARCH & DEVELOPMENT, priority 2011, dated 2015).
